Reference: patent publication US9981916B2 (Genentech, Inc., priority 2013, dated 2018)

Each molecule was assayed against T1, RORc ligand binding domain (Homo sapiens, UniProt P51449) (assay: In vitro RORc ligand binding assay (25-[3H]hydroxycholesterol displacement, filter binding)). Details: 6 nM 25-[3H]hydroxycholesterol, 0.6 ug/mL RORc receptor, 3 h at 25° C.
T1 construct: host or cells: E. coli
T1 sequence (P51449 269-508 limits assumed): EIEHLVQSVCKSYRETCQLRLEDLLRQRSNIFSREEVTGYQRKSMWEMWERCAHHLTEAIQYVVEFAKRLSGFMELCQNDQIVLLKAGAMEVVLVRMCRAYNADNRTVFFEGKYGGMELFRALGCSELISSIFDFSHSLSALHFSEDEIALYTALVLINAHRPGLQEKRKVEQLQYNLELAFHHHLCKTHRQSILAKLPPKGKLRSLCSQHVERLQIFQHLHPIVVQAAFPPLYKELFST
Protocol: Example 17: In Vitro RORc Ligand Binding Assay
This assay was used to determine a compound's potency in inhibiting activity of RORc by determining, Kiapp, IC50, or percent inhibition values.
On day of the assay, 100 uL of 0.05% CHAPS (in deionized H2O) was added to all wells of the GFB Unifilter plate and allowed soak for 1 h. A wash buffer of 50 mM HEPES (pH 7.4), 150 mM NaCl, and 5 mM MgCl2 was prepared to wash the filter plate. To prepare an assay buffer, BSA was added to the wash buffer to reach 0.01% and DTT was added to reach 1 mM.
For IC50 mode, 10 mM compound stocks were serially diluted in DMSO with DMSO to give 20× required final concentration in DMSO (15 uL compound+30 uL DMSO). The 20× compound stocks were diluted in DMSO with Assay Buffer 4-fold to reach 5× the final test concentration in 25% DMSO (10 uL compound+30 uL Assay Buffer). Solutions were mixed by aspiration several times with a pipette set on 50 uL volume. For the assay, 10 uL of 5× compound stock solutions in 25% DMSO were added to the assay plate in duplicate.
For two point screening, 10 mM stock compound solutions were diluted in DMSO to obtain 200 uM (20× the high test concentration) and then diluted 10-fold further to reach 20 uM (20× the low test concentration). The 20× stocks were diluted 4-fold with Assay Buffer (10 uL compound+30 uL Assay Buffer) to reach 5× the test concentrations (50 uM and 5 uM) and 10 uL were added to two assay plates for the duplicate wells. With each concentration tested on 2 plates, each set of 80 compounds used 4 assay plates (1 uM and 10 uM, with n=2).
25-hydroxycholesterol (1 uM) was used to determine the level of NSB signal is prepared in DMSO as for compounds above, then diluted in Assay Buffer to give a final concentration of 5 uM. For 25-hydroxycholesterol in 25% DMSO/75% Assay Buffer; 10 uL per well was used for NSB samples. Wells for Total Binding and No Receptor sample determination contained 10 uL of 25% DMSO/75% Assay Buffer per well.
25-[^3H]hydroxycholesterol was diluted in Assay Buffer to obtain 15 nM and vortex to mix. Add 20 uL to all wells to reach 6 nM final concentration in the assay.
Stock receptor solution was diluted in assay buffer to obtain 1.5 ug/mL in Assay Buffer. 20 uL was added to all wells. For No Receptor samples, 20 uL Assay Buffer was substituted for receptor solution.
Assay plates were 96-well polypropylene V-bottom plates. 10 uL of 5× compound in 25% DMSO/75% Assay Buffer was added to Test wells. 10 uL of 25% DMSO/75% Assay Buffer was added to Total Binding or No Receptor wells. 10 uL of 5 uM 25-hydroxycholesterol in 25% DMSO/75% Assay Buffer was added to NSB wells. 20 uL of 15 nM 25-[^3H]hydroxycholesterol prepared in Assay Buffer was added to all wells. 20 uL of 1.5 ug/mL RORc receptor was added to wells (or […] Assay Buffer to No R wells). Following addition to the wells, the plates were incubated 3 h at 25° C.
Using a Packard Filtermate Harvester, the filter plate were washed 4 times following transfer of the incubated samples. Plates were dry-filtered completely (2 h at 50° C. or overnight at room temperature). 50 uL Microscint 0 was added to all wells and read on Topcount protocol Inverted.
Final concentrations were as follows: 50 mM HEPES buffer (pH 7.4); 150 mM NaCl; 1 mM DTT; 5 mM MgCl2; 0.01% BSA; 5% DMSO; 0.6 ug/mL RORc receptor; 6 nM 25-[^3H]hydroxycholesterol. For NSB wells, 1 uM 25-hydroxycholesterol was also present.

Compound | IC50
CC1(C)[C@H]2CC[C@]1(c1nnc(C(F)F)o1)c1nnc(-c3c(F)cccc3F)cc12 [Example 138, 2-(difluoromethyl)-5-((5R,8R)-3-(2,6-difluorophenyl)-9,9-dimethyl-5,6,7,8-tetrahydro-5,8-methanocinnolin-8-yl)-1,3,4-oxadiazole] | 170 nM
CC1(C)[C@@H]2CC[C@@]1(C(=O)N1CC3(CCC3)C1)c1nnc(-c3c(F)cccc3F)cc12 [Example 240, ((5S,8S)-3-(2,6-difluorophenyl)-9,9-dimethyl-5,6,7,8-tetrahydro-5,8-methanocinnolin-8-yl)(2-azaspiro[3.3]heptan-2-yl)methanone] | 217 nM
CC1(C)[C@@H]2CC[C@@]1(COCc1ccc(C(N)=O)cc1)c1nnc(-c3ccccc3F)cc12 [Example 72, 4-({[(5S,8S)-3-(2-fluorophenyl)-9,9-dimethyl-6,7-dihydro-5,8-methanocinnolin-8(5H)-yl]methoxy}methyl) benzamide] | 158 nM
CC1(C)[C@@H]2CC[C@@]1(C(=O)NC1CCC1)c1nnc(-c3c(F)cccc3F)cc12 [Example 201, (5S,8S)-N-cyclobutyl-3-(2,6-difluorophenyl)-9,9-dimethyl-5,6,7,8-tetrahydro-5,8-methanocinnoline-8-carboxamide] | 759 nM
CN(C(=O)[C@]12CC[C@H](c3cc(-c4c(F)cccc4F)nnc31)C2(C)C)c1ccccn1 [Example 265, (5S,8S)-3-(2,6-difluorophenyl)-N,9,9-trimethyl-N-(pyridin-2-yl)-5,6,7,8-tetrahydro-5,8-methanocinnoline-8-carboxamide] | 1040 nM
CN(C)Cc1nnc([C@@]23CC[C@@H](c4cc(-c5c(F)cccc5F)nnc42)C3(C)C)o1 [Example 196, 1-(5-((5R,8R)-3-(2,6-difluorophenyl)-9,9-dimethyl-5,6,7,8-tetrahydro-5,8-methanocinnolin-8-yl)-1,3,4-oxadiazol-2-yl)-N,N-dimethylmethanamine] | 1890 nM
CC1(C)[C@@H]2CC[C@@]1(C(=O)N1CCC3(COC3)C1)c1nnc(-c3c(F)cccc3F)cc12 [Example 218, ((5S,8S)-3-(2,6-difluorophenyl)-9,9-dimethyl-5,6,7,8-tetrahydro-5,8-methanocinnolin-8-yl)(2-oxa-6-azaspiro[3.4]octan-6-yl)methanone] | 2440 nM
COCC12CCC(c3cc(-c4ccccc4F)nnc31)C21CC1 (centres unmarked) [Example 40, 3′-(2-fluorophenyl)-8′-(methoxymethyl)-5′,6′,7′,8′-tetrahydro-spiro[cyclopropane-1,9′-[1,2]diaza[5,8]methanocinnoline]] | 350 nM
COC(=O)C1CN(C(=O)[C@@]23CC[C@@H](c4cc(-c5c(F)cccc5F)nnc42)C3(C)C)C1 [Example 136, methyl 1-((5R,8R)-3-(2,6-difluorophenyl)-9,9-dimethyl-5,6,7,8-tetrahydro-5,8-methanocinnoline-8-carbonyl)azetidine-3-carboxylate] | 524 nM
CC1(C)[C@@H]2CC[C@@]1(C(=O)N1CCOCC1)c1nnc(-c3c(F)cccc3F)cc12 [Example 54, [(5S,8S)-3-(2,6-difluorophenyl)-9,9-dimethyl-6,7-dihydro-5,8-methanocinnolin-8(5H)-yl](morpholin-4-yl)methanone] | 42 nM
Cn1ncnc1[C@@]12CC[C@@H](c3cc(-c4c(F)cccc4F)nnc31)C2(C)C [Example 251, (5R,8R)-3-(2,6-difluorophenyl)-9,9-dimethyl-8-(1-methyl-1H-1,2,4-triazol-5-yl)-5,6,7,8-tetrahydro-5,8-methanocinnoline] | 610 nM
CCNC(=O)N(CC(F)F)C[C@@]12CC[C@@H](c3cc(-c4c(F)cccc4F)nnc31)C2(C)C [Example 293, 1-(2,2-difluoroethyl)-1-(((5R,8S)-3-(2,6-difluorophenyl)-9,9-dimethyl-5,6,7,8-tetrahydro-5,8-methanocinnolin-8-yl)methyl)-3-ethylurea] | 42 nM
Cc1nnc([C@]23CC[C@H](c4cc(-c5c(F)cccc5F)nnc42)C3(C)C)o1 [Example 103, (5S,8S)-3-(2,6-difluorophenyl)-9,9-dimethyl-8-(5-methyl-1,3,4-oxadiazol-2-yl)-5,6,7,8-tetrahydro-5,8-methanocinnoline] | 205 nM
CC1(C)[C@@H]2CC[C@@]1(CC#N)c1nnc(-c3ccccc3F)cc12 [Example 16] | 1550 nM
CC1(C)[C@H]2CC[C@]1(C(=O)N1CCc3cc(S(C)(=O)=O)ccc31)c1nnc(-c3ccccc3F)cc12 (stereo in doubt) [Example 170, ((5R,8R)-3-(2-fluorophenyl)-9,9-dimethyl-5,6,7,8-tetrahydro-5,8-methanocinnolin-8-yl)(5-(methylsulfonyl)indolin-1-yl)methanone] | 3890 nM

These reach a lower IC50. Values come first.

IC50 | Compound
7 nM | CCOC(=O)N(CC(F)F)C[C@@]12CC[C@@H](c3cc(-c4c(F)cccc4F)nnc31)C2(C)C [Example 292, ethyl (2,2-difluoroethyl)(((5R,8S)-3-(2,6-difluorophenyl)-9,9-dimethyl-5,6,7,8-tetrahydro-5,8-methanocinnolin-8-yl)methyl)carbamate]
22 nM | CC1(C)[C@H]2CC[C@]1(CN(CC(F)F)C(=O)CO)c1nnc(-c3c(F)cccc3F)cc12 [Example 308, N-(2,2-difluoroethyl)-N-(((5R,8S)-3-(2,6-difluorophenyl)-9,9-dimethyl-5,6,7,8-tetrahydro-5,8-methanocinnolin-8-yl)methyl)-2-hydroxyacetamide]
9 nM | Cc1nnc(N(CC(F)F)C[C@@]23CC[C@@H](c4cc(-c5c(F)cccc5F)nnc42)C3(C)C)o1 [Example 166, N-(2,2-difluoroethyl)-N-(((5R,8S)-3-(2,6-difluorophenyl)-9,9-dimethyl-5,6,7,8-tetrahydro-5,8-methanocinnolin-8-yl)methyl)-5-methyl-1,3,4-oxadiazol-2-amine]
29 nM | CN(C)C(=O)[C@]12CC[C@H](c3cc(-c4c(F)cccc4F)nnc31)C2(C)C [Example 73, (5S,8S)-3-(2,6-difluorophenyl)-N,N,9,9-tetramethyl-6,7-dihydro-5,8-methanocinnoline-8(5H)-carboxamide]
15 nM | CC(=O)OC[C@]12CC[C@H](c3cc(-c4c(F)cccc4Cl)nnc31)C2(C)C [Example 22, [(5S,8S)-3-(2-chloro-6-fluorophenyl)-9,9-dimethyl-6,7-dihydro-5,8-methanocinnolin-8(5H)-yl]methyl acetate]
22 nM | CC1(C)[C@@H]2CC[C@@]1(COCc1ccccc1)c1nnc(-c3c(F)cccc3Cl)cc12 [Example 21, (5S,8S)-8-[(benzyloxy)methyl]-3-(2-chloro-6-fluorohenyl)-9,9-dimethyl-5,6,7,8-tetrahydro-5,8-methanocinnoline]
23 nM | CC1(C)[C@H]2CC[C@]1(c1cccnc1)c1nnc(-c3c(F)cccc3F)cc12 [Example 154, (5R,8S)-3-(2,6-difluorophenyl)-9,9-dimethyl-8-(pyridin-3-yl)-5,6,7,8-tetrahydro-5,8-methanocinnoline]
40 nM | COc1cnc([C@@]23CC[C@@H](c4cc(-c5c(F)cccc5F)nnc42)C3(C)C)o1 [Example 195, 2-((5R,8R)-3-(2,6-difluorophenyl)-9,9-dimethyl-5,6,7,8-tetrahydro-5,8-methanocinnolin-8-yl)-5-methoxyoxazole]
